According to patent publication US4642347A, “3(2-quinolinylalkoxy)phenols” (American Home Products Corporation, priority 1985, dated 1987):
Entries after “also recorded” stand apart in the source; their conditions may differ.

Columns and labels:
[1] = test system: leukotrienes C4 and/or D4 induced bronchospasm; assay: In vivo inhibition of bronchospasm induced in guinea pigs by exogenously administered leukotrienes C4 and/or D4; parameters: species or system guinea pig (Hartley); details: for % Maximal Bronchoconstriction / % Inhibition: 10 minutes before induction of bronchospasm; for % Inhibition: compared to its control (*P < 0.05; ***P < 0.001); for leukotriene antagonism (in words): summary of guinea pig results
[2] = test system: PGE2 synthesis (cyclooxygenase); assay: Inhibition of synthesis of PGE2 by rat polymorphonuclear leukocytes; type: cell-based, rat (Wistar); details: for IC50: Leukocyte, PGE2, read-out: 50% Inhibitory Concentration (IC50), Inhibition of Synthesis of PGE2; for IC50 / influence on the synthesis of PGE2 (in words): rat PMN; for cyclooxygenase inhibitory activity (in words): conclusion from TxB2 and PGE2 results
Description: (§1) Peritoneal PMN are obtained from female Wistar rats (150-250 g) that received an i.p. injection of 6% glycogen (10 ml). After 24 hours, rats are killed by CO2 asphyxiation and peritoneal cells are harvested by peritoneal lavage using Ca^++ and Mg^++ free Hanks' balanced salt solution (HBSS). The peritoneal exudate is centrifuged at 400 g for 10 minutes. After centrifugation, the lavaged fluid is removed and the cell pellet is resuspended in HBSS containing Ca^++ and Mg^++ and 10 mM L-cysteine at a concentration of 2×10^7 cells/ml. To 1 ml portions of cell suspension, test drugs or vehicle are added and incubated at 37° C. for 10 minutes. Following this preincubation, the calcium ionophore (10 μM), A23187, is added together with 0.5 μCi [^14 C] arachidonic acid and further incubated for 10 minutes. The reaction is stopped by the addition of ice cold water (3 ml) and acidifying to pH 3.5. Lipoxygenase products are then extracted twice into diethyl ether. The pooled ether extracts are evaporated to dryness under nitrogen and the residue is redissolved in a small volume of methanol and spotted on aluminum backed pre-coated thin layer chromatographic plates. The samples are then co-chromatographed with authentic reference 5-HETE in the solvent system--hexane:ether:acetic acid (50:50:3). After chromatography, the areas associated with 5-HETE standard are identified by autoradiography, cut out and quantitated by liquid scintillation.
(§2) The procedure of Example 2 is also employed for the determination of the ability of the compounds of the invention to inhibit the synthesis of the arachidonic acid cyclooxygenase oxidation products TxB2 and PGE2.
In this assay, the procedure of Example 2 is carried out as described. However, in order to determine cyclooxygenase activity, the samples are cochromatographed with authentic reference TxB2 and PGE2 in the solvent system ethyl acetate:formic acid (80:1) and the upper phase of ethyl acetate:isoctane:acetic acid:water (110:50:20:100). After chromatography, the areas associated with TxB2 and PGE2 standards are identified by autoradiography, cut out and quantitated by liquid scintillation techniques.
(§3) The results are calculated as in Example 2 and presented below.

[3] = test system: ovalbumin-induced bronchoconstriction; assay: In vivo inhibition of ovalbumin-induced (anaphylactic) bronchoconstriction by endogenous mediators in sensitized guinea pigs; parameters: species or system guinea pig (Hartley); details: 50 mg/kg intraduodenally, 10 minutes before i.v. ovalbumin challenge; for % Inhibition: compared to its control (*P < 0.05; ***P < 0.005)
Description: The assay of this Example measures the in vivo ability of the compounds of the invention to inhibit the bronchospasm induced in guinea pigs by endogenous mediators of the bronchoconstriction.
(§4) The assay is carried out as follows:
Male Hartley strain guinea pigs weighing 250-350 g are sensitized to chicken ovalbumin (OA) (10 mg i.p.) on days 1 and 3 and used starting on day 26. The animals are anesthetized with pentobarbital sodium (50 mg/kg, i.p.), bilateral vagotomy is performed, and the jugular vein is cannulated for injection of drugs and the carotid artery for monitoring blood pressure. The trachea is cannulated for artificial ventilation by miniature Starling pump and for indirect measurement of respiratory volume changes as described, infra. Succinylcholine (2 mg/kg, i.v.) is administered to arrest spontaneous respiration. A cyclooxygenase inhibitor, indomethacin (10 mg/kg in tris buffer, i.v. at 9 min.) is administered to shunt arachidonic metabolism to lipoxygenase pathways. One minute later, chlorpheniramine (1.0 mg/kg in saline, i.v.) is given to attenuate the histaminic component of anaphylactic bronchoconstriction. Test drugs (dissolved in propylene glycol, polyethylene glycol or saline) are administered either intraduodenally or by aerosol at 2 or 10 minutes before antigen challenge. Anaphylactic bronchoconstriction is induced by administration by breaths of aerosolized OA (1%) or by intravenous administration of 0.1-0.3 mg/kg OA in saline. Control animals receive solvent (2 ml/kg i.d. or appropriate aerosol) in place of drug.
Respiratory volume changes are determined by a calibrated piston whose travel is recorded, via a linear transducer, on a Beckman Dynograph recorder. Maximal bronchoconstrictor volume is determined by clamping off the trachea at the end of the experiment. Overflow volumes at minutes 1, 3 and 5 are obtained from the recorded charts.
Area under the volume overflow curve (AUC) is estimated, using the overflow values at 1, 3 and 5 minutes, and expressed as a percentage of the maximal overflow AUC (equation 1): [formula] Drug effects are reported as percent inhibition of % max AUC values obtained from appropriate control animals (equation 2): [formula] Students t-test for unpaired data is used to determine statistical significance.

[4] = test system: 5-HETE synthesis by rat glycogen-elicited polymorphonuclear leukocytes (5-lipoxygenase); assay: Inhibition of 5-HETE synthesis by rat glycogen-elicited polymorphonuclear leukocytes (A23187, [14C] arachidonic acid); type: cell-based, rat (Wistar); details: for IC50: Leukocyte, rat peritoneal PMN, 5-HETE synthesis, read-out: 50% Inhibitory Concentration (IC50), 5-HETE
Description: This is especially true with respect to 5,12-diHETE, which is also denoted as LTB4 [see Ford-Hitchinson, J. Roy. Soc. Med., 74, 831 (1981)]. The assay of this Example measures the ability of the compounds of the invention to inhibit the synthesis of 5-HETE and LTB4 by rat glycogen-elicited polymorphonuclear leukocytes.
as §4, §1
Results are expressed as % inhibition of [^14 C]5-HETE synthesis. [formula]

[5] = test system: TxB2 synthesis (cyclooxygenase); assay: Inhibition of synthesis of TxB2 by rat polymorphonuclear leukocytes; type: cell-based, rat (Wistar); details: for IC50: Leukocyte, rat PMN, TxB2, read-out: % Inhibitory Concentration (IC50), Inhibition of Synthesis of TxB2
Description: as §1, §2
In this assay, the procedure of Example 2 is carried out as described. […] After chromatography, the areas associated with TxB2 and PGE2 standards are identified by autoradiography, cut out and quantitated by liquid scintillation techniques.
as §3

| IC50 [2] | influence on the synthesis of PGE2 (in words) [2] | IC50 [4] | IC50 [5] | potency in inhibiting TxB2 synthesis relative to the compound of Example 1 ([5]; as potent as the compound of Example 1) | SMILES | % Maximal Bronchoconstriction ([1]; 50 mg/kg intraduodenally) | % Inhibition ([1]; 50 mg/kg intraduodenally) | leukotriene antagonism (in words) [1] | cyclooxygenase inhibitory activity (in words) [2] | % Maximal Bronchoconstriction [3] | % Inhibition [3] | potency as inhibitor of LTD4-induced bronchoconstriction relative to the prior art compound ([1]; times more potent than the prior art compound, 50 mg/kg intraduodenally) | 5-lipoxygenase inhibition (in words) ([4]; conclusion from Example 2) | potency in inhibiting the synthesis of 5-HETE relative to the prior art compound ([4]; rat peritoneal neutrophils, more potent than the prior art compound) |
| --- | --- | --- | --- | --- | --- | --- | --- | --- | --- | --- | --- | --- | --- | --- |
| 5.82 µM | quite significantly active | 53 µM | 6.82 µM | twice as potent | Oc1ccccc1OCc1ccc2ccccc2n1 [2-(2-quinolinylmethoxy)phenol, reference compound] | 43 ± 6% | 28% | ability to block leukotriene responses | potent activity as a cyclooxygenase inhibitor | 31 ± 6% | 47% | – | – | – |
| > 100 µM | failure | 6.07 µM | 14.6 µM | – | Oc1cccc(OCc2ccc3ccccc3n2)c1 [Example 1, 3-(2-Quinolinylmethoxyl)phenol] | 10 ± 1% | 82% | potent leukotriene antagonist | little or no significant cyclooxygenase inhibitory activity | 21 ± 8% | 53% | approximately three | very potent 5-lipoxygenase inhibitor; also recorded: significant 5-lipoxygenase inhibition; also recorded: strong inhibitor of 5-lipoxygenase | approximately an order of magnitude more potent |
